# System: Enterococcus faecalis
# Test: Compound was evaluated for minimum inhibitory concentration against Enterococcus faecalis 50 strain
# Type: functional
row,SMILES,MIC [µg/mL]
1,CC(=O)NC[C@H]1CN(c2ccc(N3CCOCC3)c(F)c2)C(=O)O1 [LINEZOLID],0.5

# System: Enterococcus faecalis
# Test: Compound was evaluated for minimum inhibitory concentration against Enterococcus faecalis 68
# Type: functional
row,SMILES,MIC [µg/mL]
1,CC(=O)NC[C@H]1CN(c2ccc(N3CCN(C(c4ccccc4)c4ccccc4)CC3)c(F)c2)C(=O)O1,32
2,CC(=O)NC[C@H]1CN(c2ccc(N3CCN(c4ccccc4)CC3)c(F)c2)C(=O)O1,2
3,CC(=O)NC[C@H]1CN(c2ccc(N3CCN(c4ccc(F)cc4)CC3)c(F)c2)C(=O)O1,4

# System: Enterococcus faecalis
# Test: Compound was evaluated for minimum inhibitory concentration against Enterococcus faecalis 50
# Type: functional
row,SMILES,MIC [µg/mL]
1,CC(=O)NC[C@H]1CN(c2ccc(N3CCN(C(c4ccccc4)c4ccccc4)CC3)c(F)c2)C(=O)O1,8
2,COc1ccc(N2CCN(c3ccc(N4C[C@H](CNC(C)=O)OC4=O)cc3F)CC2)cc1,1
3,CC(=O)NC[C@H]1CN(c2ccc(N3CCN(c4ccccc4)CC3)c(F)c2)C(=O)O1,1
4,CC(=O)NC[C@H]1CN(c2ccc(N3CCN(c4ccc(F)cc4)CC3)c(F)c2)C(=O)O1,1

# System: Streptococcus pyogenes
# Test: Compound was evaluated for minimum inhibitory concentration against Streptococcus pyogenes 102 strain
# Type: functional
row,SMILES,MIC [µg/mL]
1,CC(=O)NC[C@H]1CN(c2ccc(N3CCN(C(c4ccccc4)c4ccccc4)CC3)c(F)c2)C(=O)O1,32
2,COc1ccc(N2CCN(c3ccc(N4C[C@H](CNC(C)=O)OC4=O)cc3F)CC2)cc1,1
3,CC(=O)NC[C@H]1CN(c2ccc(N3CCN(c4ccccc4)CC3)c(F)c2)C(=O)O1,1
4,CC(=O)NC[C@H]1CN(c2ccc(N3CCN(c4ccc(F)cc4)CC3)c(F)c2)C(=O)O1,1
5,CC(=O)NC[C@H]1CN(c2ccc(N3CCOCC3)c(F)c2)C(=O)O1 [LINEZOLID],0.5

# System: Streptococcus pyogenes
# Test: Compound was evaluated for minimum inhibitory concentration against Streptococcus pyogenes 114 strain
# Type: functional
row,SMILES,MIC [µg/mL]
1,CC(=O)NC[C@H]1CN(c2ccc(N3CCN(C(c4ccccc4)c4ccccc4)CC3)c(F)c2)C(=O)O1,16
2,COc1ccc(N2CCN(c3ccc(N4C[C@H](CNC(C)=O)OC4=O)cc3F)CC2)cc1,2
3,CC(=O)NC[C@H]1CN(c2ccc(N3CCN(c4ccccc4)CC3)c(F)c2)C(=O)O1,1
4,CC(=O)NC[C@H]1CN(c2ccc(N3CCN(c4ccc(F)cc4)CC3)c(F)c2)C(=O)O1,2
5,CC(=O)NC[C@H]1CN(c2ccc(N3CCOCC3)c(F)c2)C(=O)O1 [LINEZOLID],0.5

# System: Streptococcus sp.
# Test: Compound was evaluated for minimum inhibitory concentration against Streptococcus A 29 strain
# Type: functional
row,SMILES,MIC [µg/mL]
1,CC(=O)NC[C@H]1CN(c2ccc(N3CCN(C(c4ccccc4)c4ccccc4)CC3)c(F)c2)C(=O)O1,4
2,COc1ccc(N2CCN(c3ccc(N4C[C@H](CNC(C)=O)OC4=O)cc3F)CC2)cc1,1
3,CC(=O)NC[C@H]1CN(c2ccc(N3CCN(c4ccccc4)CC3)c(F)c2)C(=O)O1,0.5
4,CC(=O)NC[C@H]1CN(c2ccc(N3CCN(c4ccc(F)cc4)CC3)c(F)c2)C(=O)O1,1
5,CC(=O)NC[C@H]1CN(c2ccc(N3CCOCC3)c(F)c2)C(=O)O1 [LINEZOLID],0.25

# System: Streptococcus sp.
# Test: Compound was evaluated for minimum inhibitory concentration against Streptococcus A 44 strain
# Type: functional
row,SMILES,MIC [µg/mL]
1,CC(=O)NC[C@H]1CN(c2ccc(N3CCN(C(c4ccccc4)c4ccccc4)CC3)c(F)c2)C(=O)O1,32
2,COc1ccc(N2CCN(c3ccc(N4C[C@H](CNC(C)=O)OC4=O)cc3F)CC2)cc1,1
3,CC(=O)NC[C@H]1CN(c2ccc(N3CCN(c4ccccc4)CC3)c(F)c2)C(=O)O1,2
4,CC(=O)NC[C@H]1CN(c2ccc(N3CCN(c4ccc(F)cc4)CC3)c(F)c2)C(=O)O1,1
5,CC(=O)NC[C@H]1CN(c2ccc(N3CCOCC3)c(F)c2)C(=O)O1 [LINEZOLID],0.5

# System: Staphylococcus aureus
# Test: Compound was evaluated for minimum inhibitory concentration against Staphylococcus aureus 9616 strain
# Type: functional
row,SMILES,MIC [µg/mL]
1,CC(=O)NC[C@H]1CN(c2ccc(N3CCN(C(c4ccccc4)c4ccccc4)CC3)c(F)c2)C(=O)O1,8
2,COc1ccc(N2CCN(c3ccc(N4C[C@H](CNC(C)=O)OC4=O)cc3F)CC2)cc1,1
3,CC(=O)NC[C@H]1CN(c2ccc(N3CCN(c4ccccc4)CC3)c(F)c2)C(=O)O1,1
4,CC(=O)NC[C@H]1CN(c2ccc(N3CCN(c4ccc(F)cc4)CC3)c(F)c2)C(=O)O1,2
5,CC(=O)NC[C@H]1CN(c2ccc(N3CCOCC3)c(F)c2)C(=O)O1 [LINEZOLID],1

# System: Staphylococcus aureus
# Test: Compound was evaluated for minimum inhibitory concentration against Staphylococcus aureus 966 strain
# Type: functional
row,SMILES,MIC [µg/mL]
1,CC(=O)NC[C@H]1CN(c2ccc(N3CCN(C(c4ccccc4)c4ccccc4)CC3)c(F)c2)C(=O)O1,8
2,COc1ccc(N2CCN(c3ccc(N4C[C@H](CNC(C)=O)OC4=O)cc3F)CC2)cc1,2
3,CC(=O)NC[C@H]1CN(c2ccc(N3CCN(c4ccccc4)CC3)c(F)c2)C(=O)O1,2
4,CC(=O)NC[C@H]1CN(c2ccc(N3CCN(c4ccc(F)cc4)CC3)c(F)c2)C(=O)O1,1
5,CC(=O)NC[C@H]1CN(c2ccc(N3CCOCC3)c(F)c2)C(=O)O1 [LINEZOLID],0.5

# System: Staphylococcus aureus
# Test: Compound was evaluated for minimum inhibitory concentration against Staphylococcus aureus 9721 strain
# Type: functional
row,SMILES,MIC [µg/mL]
1,CC(=O)NC[C@H]1CN(c2ccc(N3CCN(C(c4ccccc4)c4ccccc4)CC3)c(F)c2)C(=O)O1,16
2,COc1ccc(N2CCN(c3ccc(N4C[C@H](CNC(C)=O)OC4=O)cc3F)CC2)cc1,1
3,CC(=O)NC[C@H]1CN(c2ccc(N3CCN(c4ccccc4)CC3)c(F)c2)C(=O)O1,1
4,CC(=O)NC[C@H]1CN(c2ccc(N3CCN(c4ccc(F)cc4)CC3)c(F)c2)C(=O)O1,1
5,CC(=O)NC[C@H]1CN(c2ccc(N3CCOCC3)c(F)c2)C(=O)O1 [LINEZOLID],0.5

# System: Staphylococcus aureus
# Test: Compound was evaluated for minimum inhibitory concentration against Staphylococcus aureus 975 strain
# Type: functional
row,SMILES,MIC [µg/mL]
1,CC(=O)NC[C@H]1CN(c2ccc(N3CCN(C(c4ccccc4)c4ccccc4)CC3)c(F)c2)C(=O)O1,4
2,COc1ccc(N2CCN(c3ccc(N4C[C@H](CNC(C)=O)OC4=O)cc3F)CC2)cc1,1
3,CC(=O)NC[C@H]1CN(c2ccc(N3CCN(c4ccccc4)CC3)c(F)c2)C(=O)O1,1
4,CC(=O)NC[C@H]1CN(c2ccc(N3CCN(c4ccc(F)cc4)CC3)c(F)c2)C(=O)O1,0.5
5,CC(=O)NC[C@H]1CN(c2ccc(N3CCOCC3)c(F)c2)C(=O)O1 [LINEZOLID],0.25

# System: Staphylococcus aureus
# Test: Compound was evaluated for minimum inhibitory concentration against Staphylococcus aureus 9776 strain
# Type: functional
row,SMILES,MIC [µg/mL]
1,CC(=O)NC[C@H]1CN(c2ccc(N3CCN(C(c4ccccc4)c4ccccc4)CC3)c(F)c2)C(=O)O1,8
2,COc1ccc(N2CCN(c3ccc(N4C[C@H](CNC(C)=O)OC4=O)cc3F)CC2)cc1,1
3,CC(=O)NC[C@H]1CN(c2ccc(N3CCN(c4ccccc4)CC3)c(F)c2)C(=O)O1,1
4,CC(=O)NC[C@H]1CN(c2ccc(N3CCN(c4ccc(F)cc4)CC3)c(F)c2)C(=O)O1,1
5,CC(=O)NC[C@H]1CN(c2ccc(N3CCOCC3)c(F)c2)C(=O)O1 [LINEZOLID],0.5

# System: Staphylococcus epidermidis
# Test: Compound was evaluated for minimum inhibitory concentration against Staphylococcus epidermidis 975 strain
# Type: functional
row,SMILES,MIC [µg/mL]
1,CC(=O)NC[C@H]1CN(c2ccc(N3CCN(C(c4ccccc4)c4ccccc4)CC3)c(F)c2)C(=O)O1,8
2,COc1ccc(N2CCN(c3ccc(N4C[C@H](CNC(C)=O)OC4=O)cc3F)CC2)cc1,1
3,CC(=O)NC[C@H]1CN(c2ccc(N3CCN(c4ccccc4)CC3)c(F)c2)C(=O)O1,1
4,CC(=O)NC[C@H]1CN(c2ccc(N3CCN(c4ccc(F)cc4)CC3)c(F)c2)C(=O)O1,1
5,CC(=O)NC[C@H]1CN(c2ccc(N3CCOCC3)c(F)c2)C(=O)O1 [LINEZOLID],0.5

# System: Staphylococcus epidermidis
# Test: Compound was evaluated for minimum inhibitory concentration against Staphylococcus epidermidis 9759 strain
# Type: functional
row,SMILES,MIC [µg/mL]
1,CC(=O)NC[C@H]1CN(c2ccc(N3CCN(C(c4ccccc4)c4ccccc4)CC3)c(F)c2)C(=O)O1,16
2,COc1ccc(N2CCN(c3ccc(N4C[C@H](CNC(C)=O)OC4=O)cc3F)CC2)cc1,1
3,CC(=O)NC[C@H]1CN(c2ccc(N3CCN(c4ccccc4)CC3)c(F)c2)C(=O)O1,1
4,CC(=O)NC[C@H]1CN(c2ccc(N3CCN(c4ccc(F)cc4)CC3)c(F)c2)C(=O)O1,1
5,CC(=O)NC[C@H]1CN(c2ccc(N3CCOCC3)c(F)c2)C(=O)O1 [LINEZOLID],0.5

# System: Streptococcus pneumoniae
# Test: Compound was evaluated for minimum inhibitory concentration against Streptococcus pneumoniae 9753 strain
# Type: functional
row,SMILES,MIC [µg/mL]
1,CC(=O)NC[C@H]1CN(c2ccc(N3CCN(C(c4ccccc4)c4ccccc4)CC3)c(F)c2)C(=O)O1,4
2,COc1ccc(N2CCN(c3ccc(N4C[C@H](CNC(C)=O)OC4=O)cc3F)CC2)cc1,1
3,CC(=O)NC[C@H]1CN(c2ccc(N3CCN(c4ccccc4)CC3)c(F)c2)C(=O)O1,0.5
4,CC(=O)NC[C@H]1CN(c2ccc(N3CCN(c4ccc(F)cc4)CC3)c(F)c2)C(=O)O1,1

# System: Streptococcus pneumoniae
# Test: Compound was evaluated for minimum inhibitory concentration against Streptococcus pneumoniae 9757 strain
# Type: functional
row,SMILES,MIC [µg/mL]
1,CC(=O)NC[C@H]1CN(c2ccc(N3CCN(C(c4ccccc4)c4ccccc4)CC3)c(F)c2)C(=O)O1,4
2,COc1ccc(N2CCN(c3ccc(N4C[C@H](CNC(C)=O)OC4=O)cc3F)CC2)cc1,1
3,CC(=O)NC[C@H]1CN(c2ccc(N3CCN(c4ccccc4)CC3)c(F)c2)C(=O)O1,0.25
4,CC(=O)NC[C@H]1CN(c2ccc(N3CCN(c4ccc(F)cc4)CC3)c(F)c2)C(=O)O1,1

# System: Streptococcus pneumoniae
# Test: Compound was evaluated for minimum inhibitory concentration against Streptococcus pneumoniae 9798 strain
# Type: functional
row,SMILES,MIC [µg/mL]
1,CC(=O)NC[C@H]1CN(c2ccc(N3CCN(C(c4ccccc4)c4ccccc4)CC3)c(F)c2)C(=O)O1,8
2,COc1ccc(N2CCN(c3ccc(N4C[C@H](CNC(C)=O)OC4=O)cc3F)CC2)cc1,1
3,CC(=O)NC[C@H]1CN(c2ccc(N3CCN(c4ccccc4)CC3)c(F)c2)C(=O)O1,1
4,CC(=O)NC[C@H]1CN(c2ccc(N3CCN(c4ccc(F)cc4)CC3)c(F)c2)C(=O)O1,1

# System: Staphylococcus epidermidis
# Test: Compound was evaluated for minimum inhibitory concentration against Staphylococcus epidermidis 9753 strain
# Type: functional
row,SMILES,MIC [µg/mL]
1,CC(=O)NC[C@H]1CN(c2ccc(N3CCN(C(c4ccccc4)c4ccccc4)CC3)c(F)c2)C(=O)O1,4
2,COc1ccc(N2CCN(c3ccc(N4C[C@H](CNC(C)=O)OC4=O)cc3F)CC2)cc1,1
3,CC(=O)NC[C@H]1CN(c2ccc(N3CCN(c4ccccc4)CC3)c(F)c2)C(=O)O1,0.5
4,CC(=O)NC[C@H]1CN(c2ccc(N3CCN(c4ccc(F)cc4)CC3)c(F)c2)C(=O)O1,0.5
5,CC(=O)NC[C@H]1CN(c2ccc(N3CCOCC3)c(F)c2)C(=O)O1 [LINEZOLID],0.25

# Source: ChEMBL document CHEMBL1135237, “Synthesis and antibacterial activity of linezolid analogues” (2002)
